According to PubChem BioAssay (NCI):
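96-well plates; 48 h exposure; 5 concentrations. Endpoints by linear interpolation between flanking doses. Not reached: highest tested concentration assigned. GI50 is the concentration that inhibits growth by half. TGI: concentration producing complete growth inhibition.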

How the values were obtained:
Experiment in all cases: inhibition of tumour cell growth, NCI panel, 48 h
[1] = test system: HCT-116 colon
[2] = test system: MDA-MB-231 breast
[3] = test system: SNB-19 CNS
[4] = test system: KM12 colon
[5] = test system: OVCAR-3 ovarian
[6] = test system: BT-549 breast
[7] = test system: SK-MEL-2 melanoma
[8] = test system: MOLT-4 leukemia
[9] = test system: MDA-MB-435
[10] = test system: SK-MEL-28 melanoma
[11] = test system: NCI-H23 lung
[12] = test system: OVCAR-5 ovarian
[13] = test system: SW-620 colon
[14] = test system: CAKI-1 renal
[15] = test system: HS 578T breast
[16] = test system: M14 melanoma
[17] = test system: EKVX NSCLC
[18] = test system: ACHN renal
[19] = test system: NCI/ADR-RES ovarian
[20] = test system: TK-10 renal
[21] = test system: OVCAR-4 ovarian
[22] = test system: SK-MEL-5 melanoma
[23] = test system: SNB-75 CNS
[24] = test system: RXF 393 renal
[25] = test system: HL-60(TB) leukemia
[26] = test system: HCC-2998 colon
[27] = test system: UACC-62 melanoma
[28] = test system: SN12C renal
[29] = test system: RPMI-8226 leukemia
[30] = test system: NCI-H460 lung
[31] = test system: A549 NSCLC
[32] = test system: NCI-H226 lung
[33] = test system: OVCAR-8 ovarian
[34] = test system: A498 renal
[35] = test system: SF-268 CNS
[36] = test system: COLO 205 colon
[37] = test system: HCT-15 colon
[38] = test system: NCI-H522 lung
[39] = test system: HT29 colon
[40] = test system: SF-539 CNS
[41] = test system: 786-0 renal
[42] = test system: U251 CNS
[43] = test system: DU-145 prostate
[44] = test system: UACC-257 melanoma
[45] = test system: SR leukemia
[46] = test system: T-47D breast
[47] = test system: HOP-92 NSCLC
[48] = test system: PC-3 prostate
[49] = test system: MCF7 breast
[50] = test system: CCRF-CEM leukemia
[51] = test system: SK-OV-3 ovarian
[52] = test system: HOP-62 NSCLC
[53] = test system: LOX IMVI melanoma
[54] = test system: SF-295 CNS
[55] = test system: UO-31 renal
[56] = test system: IGROV1 ovarian
[57] = test system: K-562 leukemia

SMILES: CCCCCCNC(=O)n1cc(F)c(=O)[nH]c1=O
- GI50 [1]: 1.99 µM
- TGI [1]: 15.3 µM
- GI50 [2]: 10.2 µM
- TGI [2]: 24.5 µM
- GI50 [3]: 7.48 µM
- TGI [3]: 56.3 µM
- GI50 [4]: 4.43 µM
- TGI [4]: > 100 µM
- GI50 [5]: 11.1 µM
- TGI [5]: > 100 µM
- GI50 [6]: 2.56 µM
- TGI [6]: 24.9 µM
- GI50 [7]: 12 µM
- TGI [7]: 35.2 µM
- GI50 [8]: 7.28 µM
- TGI [8]: 44.2 µM
- GI50 [9]: 1.21 µM
- TGI [9]: 24.2 µM
- GI50 [10]: 3.96 µM
- TGI [10]: 27.7 µM
- GI50 [11]: 6.26 µM
- TGI [11]: 49.1 µM
- GI50 [12]: 12.8 µM
- TGI [12]: 37.2 µM
- GI50 [13]: 3.48 µM
- TGI [13]: 20.7 µM
- GI50 [14]: 1.64 µM
- TGI [14]: 18.4 µM
- GI50 [15]: 52 µM
- TGI [15]: > 100 µM
- GI50 [16]: 7.77 µM
- TGI [16]: 23.9 µM
- GI50 [17]: 21.1 µM
- TGI [17]: > 100 µM
- GI50 [18]: 4.86 µM
- TGI [18]: 23 µM
- GI50 [19]: 12 µM
- TGI [19]: 92.5 µM
- GI50 [20]: 4.71 µM
- TGI [20]: 22.7 µM
- GI50 [21]: 14 µM
- TGI [21]: 39.1 µM
- GI50 [22]: 3.54 µM
- TGI [22]: 27.1 µM
- GI50 [23]: 7.51 µM
- TGI [23]: 43 µM
- GI50 [24]: 6.22 µM
- TGI [24]: 20.3 µM
- GI50 [25]: 6.84 µM
- TGI [25]: 30.6 µM
- GI50 [26]: 0.287 µM
- TGI [26]: 18.4 µM
- GI50 [27]: 2.8 µM
- TGI [27]: 25 µM
- GI50 [28]: 4.29 µM
- TGI [28]: 24.3 µM
- GI50 [29]: 2.38 µM
- TGI [29]: 32.2 µM
- GI50 [30]: 0.564 µM
- TGI [30]: 17.7 µM
- GI50 [31]: 0.738 µM
- TGI [31]: > 100 µM
- GI50 [32]: 10.6 µM
- TGI [32]: 23.3 µM
- GI50 [33]: 3.29 µM
- TGI [33]: 24.1 µM
- GI50 [34]: 18 µM
- TGI [34]: > 100 µM
- GI50 [35]: 9.07 µM
- TGI [35]: 87.9 µM
- GI50 [36]: 2.09 µM
- TGI [36]: 18.4 µM
- GI50 [37]: 4.26 µM
- TGI [37]: 28.7 µM
- GI50 [38]: 10.7 µM
- TGI [38]: 25 µM
- GI50 [39]: 2.43 µM
- TGI [39]: 19.3 µM
- GI50 [40]: 0.514 µM
- TGI [40]: 15.1 µM
- GI50 [41]: 10.6 µM
- TGI [41]: 23.4 µM
- GI50 [42]: 4.27 µM
- TGI [42]: 17.5 µM
- GI50 [43]: 5.38 µM
- TGI [43]: > 100 µM
- GI50 [44]: 4.22 µM
- TGI [44]: 26.4 µM
- GI50 [45]: 1.44 µM
- TGI [45]: 21.3 µM
- GI50 [46]: 11.7 µM
- TGI [46]: 47.5 µM
- GI50 [47]: 14.8 µM
- TGI [47]: 50 µM
- GI50 [48]: 10.1 µM
- TGI [48]: 27.3 µM
- GI50 [49]: 0.65 µM
- TGI [49]: 16.8 µM
- GI50 [50]: 3.2 µM
- TGI [50]: 26.7 µM
- GI50 [51]: 11.1 µM
- TGI [51]: 91.1 µM
- GI50 [52]: 7.09 µM
- TGI [52]: 21.5 µM
- GI50 [53]: 2.06 µM
- TGI [53]: 16.3 µM

SMILES: CC1=CC[C@](C)(O)[C@@]2(C)CC[C@H]3C(=C(C)C)C(=O)C[C@]3(C)C[C@H]12
- TGI [1]: > 50 µM
- TGI [2]: > 50 µM
- TGI [3]: > 50 µM
- TGI [4]: > 50 µM
- TGI [5]: > 50 µM
- TGI [6]: > 50 µM
- TGI [7]: > 50 µM
- TGI [8]: 25.7 µM
- TGI [9]: > 50 µM
- TGI [10]: > 50 µM
- TGI [11]: > 50 µM
- TGI [54]: > 50 µM
- TGI [12]: > 50 µM
- TGI [13]: > 50 µM
- TGI [55]: > 50 µM
- TGI [14]: > 50 µM
- TGI [15]: > 50 µM
- TGI [16]: > 50 µM
- TGI [17]: > 50 µM
- TGI [18]: > 50 µM
- TGI [19]: > 50 µM
- TGI [20]: > 50 µM
- TGI [21]: > 50 µM
- TGI [22]: > 50 µM
- TGI [56]: > 50 µM
- TGI [23]: > 50 µM
- TGI [24]: > 50 µM
- TGI [25]: 16.4 µM
- TGI [26]: > 50 µM
- TGI [27]: 47.1 µM
- TGI [28]: > 50 µM
- TGI [29]: 26.2 µM
- TGI [31]: > 50 µM
- TGI [32]: > 50 µM
- TGI [33]: > 50 µM
- TGI [34]: > 50 µM
- TGI [35]: > 50 µM
- TGI [36]: > 50 µM
- TGI [37]: 46.2 µM
- TGI [38]: 31.5 µM
- TGI [39]: > 50 µM
- TGI [40]: > 50 µM
- TGI [41]: > 50 µM
- TGI [42]: > 50 µM
- TGI [43]: > 50 µM
- TGI [44]: > 50 µM
- TGI [45]: 40.6 µM
- TGI [46]: > 50 µM
- TGI [47]: > 50 µM
- TGI [48]: > 50 µM
- TGI [49]: > 50 µM
- TGI [50]: 34.2 µM
- TGI [51]: > 50 µM
- TGI [57]: 17 µM
- TGI [52]: > 50 µM
- TGI [53]: 17 µM
